In US20250197864A1, “LNCRNA TRANSCRIPTS IN MELANOMAGENESIS” (The Regents of the University of California, priority 2021, published 2025):

Tested on: gene expression in D04 melanoma cells
Assay: RNA-Seq differential expression analysis (DESeq2)
Format: cell-based, human
Settings: up-regulated list
Procedure: Total RNA was isolated using the RNeasy mini Kit (QIAGEN) following the manufacturer's protocol. Quality check for extracted RNA was done using 2100 Bioanalyzer (Agilent Technologies, USA) or Tapestation System (Agilent Technologies, USA). […] For samples used for identification of MAPK-responsive lncRNAs, paired-end, 101-bp sequencing was performed by Centrillion Genomic Services (Centrillion Biosciences, USA) on an Illumina HiSeq 2000. For DE gene analysis of ASO-transfected D04 samples, paired-end, 2×150-bp sequencing was performed by Genewiz (USA) on a Illumina HiSeq.
Sequence reads were aligned to the human genome (hg19) using TopHat (Version 2.0.11).
Differential expression (DE) analysis was done using DESeq2. Differentially expressed genes were defined by more than 1.5-fold changes (log 2 >0.58 or <−0.58) in expression with FDR<0.05. GO term analysis was done using DAVID Functional Annotation Clustering analysis.
To examine the biomolecular changes upon TRASH-inhibition in melanoma, D04 cells were treated with TRASH-ASOs (SEQ ID NO:15) and Control-ASOs and RNA was extracted and used for RNA-Seq. […] These GO terms consisted of genes encoding growth factors, tyrosine kinases, G protein coupled receptor subunits, and collagen subunits. Scatter plot diagram showing differential gene expression after TRASH-ASO treatment compared to Control-ASO treatment. (cut-off for significance was adjusted p-value <0.05). Data was obtained from RNA-Seq of D04 melanoma cells, treatment period was three days. (FIG. 5c)

GACTGGAGATAATTAA (gapmer, pattern not given here) [SEQ ID NO: 15, GapmeR ASO targeting AC004540.4 (TRASH), exon region of both isoforms; used for in vitro experiments]
log2FoldChange BBC3 (ENSG00000105327): 0.619
log2FoldChange CD33 (ENSG00000105383): 0.929
log2FoldChange PLA2G4C (ENSG00000105499): 0.608
log2FoldChange HBP1 (ENSG00000105856): 0.6116
log2FoldChange ATP6V0A4 (ENSG00000105929): 0.8207
log2FoldChange CPED1 (ENSG00000106034): 0.7035
log2FoldChange SERPINE1 (ENSG00000106366): 0.6383
log2FoldChange ABI3 (ENSG00000108798): 0.9913
log2FoldChange SLC16A6 (ENSG00000108932): 0.91
log2FoldChange LPXN (ENSG00000110031): 0.7633
log2FoldChange ATG2A (ENSG00000110046): 0.5858
log2FoldChange CHKA (ENSG00000110721): 0.7402
log2FoldChange RASAL1 (ENSG00000111344): 0.896
log2FoldChange RBM24 (ENSG00000112183): 0.8237
log2FoldChange TREML2 (ENSG00000112195): 1.205
log2FoldChange WWC1 (ENSG00000113645): 0.6261
log2FoldChange STC2 (ENSG00000113739): 0.7339
log2FoldChange TNNC1 (ENSG00000114854): 1.043
log2FoldChange IL1A (ENSG00000115008): 0.7632
log2FoldChange ACTL8 (ENSG00000117148): 1.133
log2FoldChange TSPAN1 (ENSG00000117472): 0.7518
log2FoldChange IRF6 (ENSG00000117595): 0.7078
log2FoldChange DIEXF (ENSG00000117597): 0.6611
log2FoldChange MUC5B (ENSG00000117983): 0.599
log2FoldChange NR4A3 (ENSG00000119508): 1.046
log2FoldChange GPR75 (ENSG00000119737): 0.8604
log2FoldChange AVPI1 (ENSG00000119986): 0.7469
log2FoldChange DUSP1 (ENSG00000120129): 1.094
log2FoldChange FABP3 (ENSG00000121769): 0.9724
log2FoldChange CCRL2 (ENSG00000121797): 1.162
log2FoldChange PAEP (ENSG00000122133): 0.8405
log2FoldChange PLAU (ENSG00000122861): 1.118
log2FoldChange SLC25A16 (ENSG00000122912): 0.8143
log2FoldChange KCNK15 (ENSG00000124249): 1.203
log2FoldChange PAIP2B (ENSG00000124374): 1.015
log2FoldChange MT1G (ENSG00000125144): 1.136
log2FoldChange MT2A (ENSG00000125148): 0.8492
log2FoldChange BMP4 (ENSG00000125378): 0.657
log2FoldChange IL1B (ENSG00000125538): 1.059
log2FoldChange PSD4 (ENSG00000125637): 0.7899
log2FoldChange ARMCX1 (ENSG00000126947): 0.5964
log2FoldChange BEST3 (ENSG00000127325): 1.14
log2FoldChange KLF2 (ENSG00000127528): 0.7602
log2FoldChange AKAP9 (ENSG00000127914): 0.609
log2FoldChange KRT17 (ENSG00000128422): 1.116
log2FoldChange VGF (ENSG00000128564): 0.9691
log2FoldChange CSRP3 (ENSG00000129170): 1.122
log2FoldChange AJUBA (ENSG00000129474): 0.6241
log2FoldChange CDH15 (ENSG00000129910): 0.8921
log2FoldChange SYT5 (ENSG00000129990): 1.139
log2FoldChange UNC13A (ENSG00000130477): 1.071
log2FoldChange ULBP3 (ENSG00000131019): 0.6552
log2FoldChange ZBED3 (ENSG00000132846): 0.778
log2FoldChange BEX2 (ENSG00000133134): 0.7157
log2FoldChange BEX1 (ENSG00000133169): 0.6316
log2FoldChange BTG1 (ENSG00000133639): 0.69
log2FoldChange DYDC2 (ENSG00000133665): 0.987
log2FoldChange TRPM1 (ENSG00000134160): 1.155
log2FoldChange PTPN22 (ENSG00000134242): 1.051
log2FoldChange FST (ENSG00000134363): 0.8947
log2FoldChange SLC37A2 (ENSG00000134955): 0.7294
log2FoldChange NT5E (ENSG00000135318): 0.6889
log2FoldChange RDH5 (ENSG00000135437): 0.8676
log2FoldChange PKIB (ENSG00000135549): 0.7917
log2FoldChange DYSF (ENSG00000135636): 0.9396
log2FoldChange LCP1 (ENSG00000136167): 1.021
log2FoldChange IL6 (ENSG00000136244): 0.8209
log2FoldChange MYC (ENSG00000136997): 0.6121
log2FoldChange RNF144B (ENSG00000137393): 1.04
log2FoldChange ARHGAP29 (ENSG00000137962): 0.6178
log2FoldChange AOX1 (ENSG00000138356): 1.099
log2FoldChange FGF5 (ENSG00000138675): 0.9785
log2FoldChange ANXA3 (ENSG00000138772): 0.8166
log2FoldChange SLC46A3 (ENSG00000139508): 0.6816
log2FoldChange CYP11A1 (ENSG00000140459): 0.9698
log2FoldChange RHCG (ENSG00000140519): 1.166
log2FoldChange ITGAX (ENSG00000140678): 0.7501
log2FoldChange MAP1LC3B (ENSG00000140941): 0.7968
log2FoldChange NPC1 (ENSG00000141458): 0.6586
log2FoldChange SLC14A1 (ENSG00000141469): 1.217
log2FoldChange NECTIN4 (ENSG00000143217): 1.206
log2FoldChange ABL2 (ENSG00000143322): 0.8447
log2FoldChange RORC (ENSG00000143365): 0.8825
log2FoldChange TUFT1 (ENSG00000143367): 0.8984
log2FoldChange DYRK3 (ENSG00000143479): 0.5876
log2FoldChange DUSP10 (ENSG00000143507): 0.6264
log2FoldChange SLC20A1 (ENSG00000144136): 0.585
